Values quoted from earlier work, collected in patent US20030068374A1, “Sustained release preparations of physiologically active compound hardly soluble in water and production process and use of the same” (priority 2000, published 2003).

Conditions: in water, 18° C.

For [O]=[Zn] [zinc oxide], the solubility is given as 0.42 mg/100 ml.
